# Measurements: patent US20200337297A1, “SYSTEM AND METHOD FOR CARBON MONOXIDE […] BLOOD COMPONENTS” (SAFETIN LTD., priority 2017, published 2020)
# Columns and labels:
# [1] = test system: human platelets in rabbit blood circulation; test: In vivo platelets viability analysis in a rabbit model
# Experimental: Female New Zealand white rabbits (2.5-3 kg) were infused with Ethyl Palmytate (EP) to inhibit the Macrophages function (Blajchman M A and Lee D H, “The thrombocytopenic rabbit bleeding time model to evaluate the in vivo hemostatic efficacy of platelets and platelet substitutes”, Transfus Med Rev 1997, 11:95-105). EP solution (10 ml) was prepared by mixing (up to homogeneity) of 2.25 ml EP with 7.75 ml of 5% dextrose containing 1% Tween-20.
# […] Blood samples at time intervals were analyzed by flow cytometry with FITC labeled anti-CD42a for the presence of human platelets (Rothwell S W, Maglasang P et al., “Survival of fresh human platelets in a rabbit model as traced by flow cytometry”, Transfusion 1998, 38:550-556; Leytin V, Allen D J et al., “A rabbit model for monitoring in vivo viability of human platelet concentrates using flow cytometry”, Transfusion 2002, 42:711-718). 100% represented the total number of normalized human platelet in rabbit circulation after 30 min from the injection.
# [2] = test system: platelets; test: ATP quantitation in stored platelets (luminometric ATP bioluminescence kit); format: cell-based, human
# Experimental: PC fractions were identically prepared from CO pretreated or untreated blood by consecutive centrifugation in a sterile environment using blood bank conditions. Bicarbonate (4% of PC volume) was then added from a stock solution of 750 mM with agitation to yield a final bicarbonate concentration of 30 mM. Next, the PC was treated with CO in a similar manner to whole blood. Alternatively, rather than applying a vacuum, the containers were flushed for 10 min. with sterile CO while agitating the containers, which were then sealed. The containers were allowed to stay at room temperature of 20-24 degree C.° PRP platelets were treated similarly.
# A luminometric ATP was measured by Veritas™ Microplate Luminometer (Tuner Biosystems) by using an ATP bioluminescence kit (CLS II) from Roche (cat No. 11 699 709 001) Mannheim Germany The assay was performed according to the manufacturer's instructions. Briefly: 50 μl of cell lysate (500000 cell per sample) or ATP standard concentration was added in advance to each well in 96 well LIA-white plate (Greiner bio one). Automatic injection of 50 μof substrate solution (luciferin and luciferase) was added to each well by the device and the luminescence was measured. ATP concentrations were calculated based on an ATP standard curve. Each sample was tested in triplicate.
# [3] = test system: platelets; test: Analysis of phosphatidylserine (PS) exposure by FACS (AnnexinV-FITC); format: cell-based, human
# Experimental: PS exposure was measured by FACS analysis of bound AnnexinV-FITC using 488 nm for excitation and 530 nm for emission. (Shapira S, Friedman Z et al., “The effect of storage on the expression of platelet membrane phosphatidylserine and the subsequent impact on the coagulant function of stored platelets”, Transfusion 2000, 40:1257-1263)
compound,measurement,setting,value
"[C-]#[O+] [COatm, carbon monoxide]",time dependent survival of stored human platelets in rabbit blood circulation,"[1]; 7 days stored, COatm vs air-stored (FIG. 5)",survive longer in vivo than air-stored platelets
same,survival of stored platelets in rabbit blood circulation,"[1]; Plt preserved for 9 days, COatm vs air (FIG. 5)",survived for longer in blood circulation
same,ATP level relative to the initial value of the ATP of air preserved platelets,"[2]; 5 days COatm storage, then overnight re-aeration",74%
same,ATP level relative to the level in fresh PC,[2]; platelets stored as PC 5 days under anaerobic COatm,28%
same,PS exposure after transfer to air,"[3]; 9 days COatm-stored, then re-aerated (FIG. 6d)",another fraction returned to very low PS exposure
same,"PS exposure, change during extended storage",[3]; extended storage under COatm up to 9 days,no further changes
same,PS exposure,[3]; several hours of storage under COatm (FIG. 6b),most cells are PS-exposed
